Source: patent US12595269B2, “Morpholine-like monoamine releasers” (Solvonis Therapeutics Ireland Holdings Limited, priority 2022, dated 2026)
Entries after “also recorded” stand apart in the source; their conditions may differ.

Legend:
[1] = target: T1, human P-glycoprotein transporter (Homo sapiens, UniProt P08183); assay: P-gp substrate assessment, efflux ratio in MDCKII-MDR1 cells; assay type: in vitro ADME; details: P-gp substrate classification, MDCKII-MDR1 cells
T1 construct: expressed in transfected cells; host or cells: MDCKII (canine kidney)
T1 sequence (P08183 whole entry): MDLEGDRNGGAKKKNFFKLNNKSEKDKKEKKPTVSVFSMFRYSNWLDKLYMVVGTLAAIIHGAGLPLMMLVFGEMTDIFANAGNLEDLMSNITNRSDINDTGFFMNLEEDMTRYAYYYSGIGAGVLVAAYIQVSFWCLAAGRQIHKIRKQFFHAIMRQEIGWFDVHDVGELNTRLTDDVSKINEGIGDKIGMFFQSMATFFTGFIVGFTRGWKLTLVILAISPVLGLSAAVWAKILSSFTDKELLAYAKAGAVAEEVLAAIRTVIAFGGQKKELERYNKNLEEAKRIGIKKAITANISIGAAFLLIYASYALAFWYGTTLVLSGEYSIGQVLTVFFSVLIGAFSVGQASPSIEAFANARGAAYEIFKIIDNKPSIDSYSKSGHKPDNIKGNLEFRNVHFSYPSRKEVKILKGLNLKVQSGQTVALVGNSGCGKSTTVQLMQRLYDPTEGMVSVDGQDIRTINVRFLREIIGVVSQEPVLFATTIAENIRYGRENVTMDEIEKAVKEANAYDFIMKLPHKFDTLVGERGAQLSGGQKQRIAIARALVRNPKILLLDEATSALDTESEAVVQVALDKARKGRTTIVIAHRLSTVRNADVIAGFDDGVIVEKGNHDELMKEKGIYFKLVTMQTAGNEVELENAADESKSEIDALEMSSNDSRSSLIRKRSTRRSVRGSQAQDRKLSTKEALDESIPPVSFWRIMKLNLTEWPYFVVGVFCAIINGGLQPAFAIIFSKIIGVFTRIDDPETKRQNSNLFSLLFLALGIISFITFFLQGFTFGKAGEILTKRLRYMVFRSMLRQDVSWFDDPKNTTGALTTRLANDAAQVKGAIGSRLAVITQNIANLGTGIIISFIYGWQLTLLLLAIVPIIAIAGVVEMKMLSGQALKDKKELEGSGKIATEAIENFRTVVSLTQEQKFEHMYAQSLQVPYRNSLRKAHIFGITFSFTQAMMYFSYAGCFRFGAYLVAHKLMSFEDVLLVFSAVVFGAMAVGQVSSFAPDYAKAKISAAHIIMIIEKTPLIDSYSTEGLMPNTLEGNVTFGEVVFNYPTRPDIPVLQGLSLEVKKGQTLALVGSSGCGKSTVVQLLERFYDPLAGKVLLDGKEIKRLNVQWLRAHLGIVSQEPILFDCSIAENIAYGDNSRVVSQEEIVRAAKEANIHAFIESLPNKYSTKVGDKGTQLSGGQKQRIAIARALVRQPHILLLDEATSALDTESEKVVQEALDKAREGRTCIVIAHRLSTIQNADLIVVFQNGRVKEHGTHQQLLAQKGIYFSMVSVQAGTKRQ
Description: (§1) Methods and Procedure: This study was conducted in compliance with previously described procedures to assure data integrity and adherence to GLP regulations. The experiments described herein were designed to evaluate the apparent permeability (Papp) of test compounds at pH 7.4. Additionally, the MDCKII-MDR1 cell line (Madin-Darby Canine Kidney clone II cell line heterologously expressing the human P-glycoprotein transporter) and mock cell line MDCKII were used to determine whether a compound acted as a P-gp substrate, in the absence and in the presence of the potent P-gp inhibitor. Test control items (digoxin, metoprolol, and atenolol) and control P-gp inhibitor (GF120918) stock solution were prepared in DMSO. Bidirectional assays (Apical to Basolateral [AB] and Basolateral to Apical [BA]) were run, in both the absence and presence of P-gp inhibitor GF120918 in MDCKII-MDR1 and mock cell line MDCKII, using as transport buffer HBSSH at a pH of 7.4 (n=3).
(§2) Compounds were tested at a single concentration (i.e. at 3 or 10 μM) at one time point (i.e. 60 min). Alternative concentrations or time-points may also be investigated. As reference compounds, digoxin (P-gp substrate), atenolol (low permeable compound) and metoprolol (high permeable compound) were included at a single concentration (e.g., 10 or 25 μM) and at single time point (e.g., 60 min). Digoxin transport was evaluated in two directions (apical-to-basolateral [AB] and basolateral-to-apical [BA]) in the absence and presence of GF120918 or in mock cells, MDCKII (n=3). Atenolol and metoprolol were only tested in the AB direction in absence of GF120918 or in mock cells, MDCKII (n=3). The integrity of the cell monolayer was evaluated after the permeability experiment using the paracellular permeability marker Lucifer yellow (LY) in the apical to basolateral direction in each well.
(§3) MDCKII or MDCKII-MDRI cells cultivated using DMEM (high glucose, GlutaMAX™ supplemented with pyruvate, 10% FBS HI and Pen/Strep) and seeded onto microporous PET (Polyethylene Terephthalate) membranes in HTS 96-Multiwell Insert plates at density of ˜175,000-245,000 cells/cm^2 (25000-35000 cells/well; 50 μL/well) in DMEM medium and incubated for 3-4 days at 37° C.-5% CO2. Medium was changed a day before the experiment.
(§4) Stock solutions of test items were prepared in DMSO at a concentration of 5 or 10 mM and stored at −20° C. until use. The potent P-gp inhibitor, GF120918 (stock solution 10 mM) and the reference controls digoxin, atenolol, metoprolol (stock solutions 3 or 10 mM) were prepared in DMSO and stored at −20° C. until use.
(§5) Donor working solutions of test items and reference controls will be prepared at a concentration of 10 or 25 μM, diluting the stock solutions in HBSSH. Receiver working solutions contained transport buffer only. All working solutions were prepared such that the final concentration of DMSO was <1% (v/v). A donor working solution containing LY was also prepared in transport buffer at 100 µM.
(§6) MDCKII and MDCKII-MDR1 cells were preincubated (37° C., 15 to 30 minutes) in receiver working solutions containing transport buffer on apical (A) and basolateral (B) sides. Following pre-incubation, test items and control items (digoxin) transport were measured in two directions (apical to basolateral [AB]) and basolateral to apical [BA]), and these directions were performed in triplicate sets of wells, in both the absence and presence of […] GF120918 or mock MDCKII cells. For [AB] directional transport, 75 μL of donor working solution was added to the A (apical) compartment and 235 μL of receiver working solution was added to the B (basolateral) compartment. For [BA] directional transport, 235 μL donor working solution with test items or reference controls was added to the B compartment and 75 μL receiver working solution was added to the A compartment. Transport of permeability reference controls, atenolol and metoprolol, were measured in one direction (apical to basolateral [AB]) (n=3). […]

[2] = target: T2, human P-glycoprotein (MDR1) (Homo sapiens, UniProt P08183); assay: as above; assay type: in vitro ADME; details: dog, MDCK-MDR1, pH 7.4; efflux ratio; P-gp substrate if ratio >2 and reduced by inhibitor; read-out: B/A ratio in MDCKII-MDR1 cells
T2 construct: expressed in transfected cells; host or cells: MDCKII (canine kidney)
T2 sequence (P08183 whole entry): as above
Description: as §1, §2, §3, §4, §5, §6

| SMILES | Substrate Classification [1] | efflux ratio at 60 min [2] |
| --- | --- | --- |
| Clc1ccc(C23CNC(CO2)C3)cc1Cl (centres unmarked) [522A, 1-(3,4-dichlorophenyl)-2-oxa-5-azabicyclo[2.2.1]heptane] | not determined to be a substrate for P-gp; also recorded: pGP-NO | 0.83 |
| CNC(C)Cc1ccc2c(c1)OCO2 (centres unmarked) [MDMA, reference compound] | not a P-gp substrate | 1.5 |
| Clc1ccc([C@]23CN[C@H](CO2)C3)cc1Cl (single isomer, unassigned) [516A] | pGP-NO | 0.73 |
| Clc1ccc([C@@]23CN[C@@H](CO2)C3)cc1Cl (single isomer, unassigned) [518A] | not determined to be a substrate for P-gp; also recorded: pGP-NO | 0.7 |
